Source: US11590109B2 (priority 2016, dated 2023)

How the values were obtained:
[1] = system: Dengue Virus 2 (type 2 dengue virus); assay: Inhibition of viral replication (CPE) at cellular level, Dengue Virus 2 in Vero; type: cell-based; conditions: Dengue Virus 2 in host cell Vero; for IC50: CPE
Description: Activity Test for Inhibition of Viral Replication at Cellular Level […]
The present inventors tested inhibitory effects of the compound of the present invention on cytopathic effects (CPE) caused by viral infection on mammalian cells.
Half-inhibitory concentration IC50 and half toxic concentration TC50 of the compound against Dengue Virus 2 (type 2 dengue virus) in host cell Vero (African green monkey kidney cell).

[2] = Determination of TC50 (half toxicity concentration) in RD cells; type: cell-based; conditions: human, host cell RD, EV71 table
H3N2 (influenza virus) [3] = conditions: H3N2 in host cell MDCK
H1N1 (influenza virus) [4] = conditions: H1N1 in host cell MDCK
H7N9 (influenza virus) [5] = conditions: H7N9 in host cell MDCK
[6] = system: EV71 (hand-foot-and-mouth virus); conditions: for SI (TC50/IC50): EV71 in host cell RD
in vitro [7] = conditions: African green monkey
H3N2 (influenza virus) [8] = assay: microbe, parasite or virus in culture; conditions: Influenza A virus, H3N2, MDCK
H1N1 (influenza virus) [9] = assay: microbe, parasite or virus in culture; conditions: Influenza A virus, H1N1, MDCK
H7N9 (influenza virus) [10] = assay: microbe, parasite or virus in culture; conditions: Influenza A virus, H7N9, MDCK
[11] = system: EV71 (hand-foot-and-mouth virus); assay: microbe, parasite or virus in culture; conditions: Enterovirus A
[12] = system: RSV (human respiratory syncytial virus); assay: Inhibition of viral replication (CPE) at cellular level, RSV in Vero; conditions: for SI (TC50/IC50): RSV in host cell Vero; for IC50: human respiratory syncytial virus, Vero
[13] = system: JEV (Japanese encephalitis virus); assay: Inhibition of viral replication (CPE) at cellular level, JEV in Vero; conditions: for SI (TC50/IC50): JEV in host cell Vero; for IC50: Japanese encephalitis virus, Vero
Zika Virus = assay: Inhibition of viral replication (CPE) at cellular level, Zika Virus in Vero; conditions: for SI (TC50/IC50): Zika Virus in host cell Vero; for IC50: Zika virus, Vero
in vitro [14] = conditions: dog, TC50
[15] = TC50, host cell Vero, Dengue Virus 2 table
[16] = TC50, host cell Vero, RSV table
[17] = TC50, host cell Vero, Zika Virus table

Row | Structure (SMILES) | SI (TC50/IC50) [1] | IC50 [1] [nM] | CC50 [2] [nM] | SI (TC50/IC50) (H3N2 (influenza virus) [3]) | SI (TC50/IC50) (H1N1 (influenza virus) [4]) | SI (TC50/IC50) (H7N9 (influenza virus) [5]) | SI (TC50/IC50) [6] | CC50 (in vitro [7]) [nM] | CC50 (in vitro [7]; [15]) [nM] | CC50 (in vitro [7]; [16]) [nM] | CC50 (in vitro [7]; [17]) [nM] | IC50 (H3N2 (influenza virus) [8]) [nM] | IC50 (H1N1 (influenza virus) [9]) [nM] | IC50 (H7N9 (influenza virus) [10]) [nM] | IC50 [11] [nM] | IC50 [12] [nM] | SI (TC50/IC50) [13] | IC50 [13] [nM] | SI (TC50/IC50) (Zika Virus) | IC50 (Zika Virus) [nM] | other results
1 | Cc1sc(N/N=C/c2ccccc2C(=O)O)nc1-c1ccccc1 [Compound 12-1] | 59 | 390 | 2000 | 246 | 362 | 108 | 5 | 43000 | 23000 | 39000 | 33000 | 520 | 910 | 2300 | 390 | 6910 | 138.7 | 310 | 110 | 300 | SI (TC50/IC50) [12]: 5.6
2 | Cc1ccc(/C=N/Nc2nc(-c3ccccc3Cl)cs2)c(C(=O)O)c1 [Compound 9-1] | 125.8 | 310 | 3000 | 330 | 653 | 327 | 9 | 32000 | 39000 | 135000 | 42000 | 270 | 360 | 670 | 330 | 3360 | 100 | 320 | 127 | 330 | SI (TC50/IC50) [12]: 40
3 | O=C(O)c1cc(F)c(F)cc1/C=N/Nc1nc(-c2ccccc2Cl)cs1 [Compound 23-1] | 200 | 390 | 2000 | 477 | 300 | 152 | 5.4 | 36000 | 78000 | 101000 | 76000 | 260 | 670 | 670 | 370 | 5670 | 124 | 290 | 262 | 290 | CC50 (in vitro [14]): 124000 nM; SI (TC50/IC50) [12]: 19
4 | Cc1sc(N(C)/N=C/c2ccccc2C(=O)O)nc1-c1ccccc1 [Compound 12, (E)-5-methyl-4-phenyl-2-[1-methyl-2-(2-carboxybenzylidene)hydrazino]thiazole] | 65 | 260 | 1000 | 146 | 77 | 54 | 4 |  | 17000 | 21000 | 13000 | 350 | 790 | 1090 | 250 | 1790 | 100 | 130 | 56.5 | 230 | CC50 (in vitro [14]): 51000 nM; SI (TC50/IC50) [12]: 11.7
5 | CN(/N=C/c1ccc(F)cc1C(=O)O)c1nc(-c2ccccc2Cl)cs1 [Compound 10, (E)-4-(2-chlorophenyl)-2-[1-methyl-2-(2-carboxyl-4-fluorobenzylidene)hydrazino]thiazole] | 460 | 50 | 500 | 320 | 233 | 161 | 10 | 13000 | 23000 | 19000 | 21000 | 100 | 210 | 280 | 50 | 5210 | 216 | 60 | 350 | 60 | inhibitory effects on human hand-foot-mouth virus EV71 ([6]; FIG. 2): a certain inhibitory effects; CC50 (in vitro [14]): 32000 nM; SI (TC50/IC50) [12]: 3.6
6 | CN(/N=C/c1ccccc1C(=O)O)c1nc(-c2ccccc2Cl)cs1 [Compound 1, (E)-4-(2-chlorophenyl)-2-[1-methyl-2-(2-carboxybenzylidene)hydrazino]thiazole] | 145 | 110 | 1000 | 125 | 83 | 11 | 7.1 | 12000 | 16000 | 31000 | 13000 | 120 | 420 | 2320 | 140 | 4340 | 80 | 150 | 130 | 100 | 
7 | O=C(O)c1cc(F)ccc1/C=N/Nc1nc(-c2ccccc2Cl)cs1 [Compound 10-1] | 300 | 150 | 1000 | 313 | 615 | 516 | 5.6 | 49000 | 45000 | 50000 | 89000 | 310 | 390 | 490 | 180 | 7390 | 306 | 160 | 523 | 170 | SI (TC50/IC50) [12]: 6.8
8 | CN(/N=C/c1ccc(C(F)(F)F)cc1C(=O)O)c1nc(-c2ccccc2Cl)cs1 [Compound 8, (E)-4-(2-chlorophenyl)-2-[1-methyl-2-(4-trifluoromethyl-2-carboxybenzylidene)hydrazino]thiazole] | 211 | 90 | 1000 | 233 | 49 | 66 | 11 | 17000 | 19000 | 31000 | 19000 | 210 | 630 | 590 | 90 | 5630 | 170 | 100 | 158 | 120 | CC50 (in vitro [14]): 49000 nM; SI (TC50/IC50) [12]: 5.5
9 | Cc1ccc(/C=N/N(C)c2nc(-c3ccccc3Cl)cs2)c(C(=O)O)c1 [Compound 9, (E)-4-(2-chlorophenyl)-2-[1-methyl-2-(4-methyl-2-carboxybenzylidene)hydrazino]thiazole] | 106 | 170 | 1000 | 137 | 240 | 83 | 8.3 | 11000 | 18000 | 35000 | 15000 | 190 | 270 | 530 | 120 | 2270 | 73.3 | 150 | 100 | 150 | SI (TC50/IC50) [12]: 15
10 | O=C(O)c1cc(C(F)(F)F)ccc1/C=N/Nc1nc(-c2ccccc2Cl)cs1 [Compound 8-1] | 325 | 200 | 2000 | 456 | 138 | 117 | 10.5 | 36000 | 65000 | 123000 | 66000 | 250 | 890 | 860 | 190 | 8890 | 156 | 230 | 264 | 250 | CC50 (in vitro [14]): 114000 nM; SI (TC50/IC50) [12]: 14
11 | CCN(/N=C/c1ccccc1C(=O)O)c1nc(-c2ccccc2Cl)cs1 [Compound 2, (E)-4-(2-chlorophenyl)-2-[1-ethyl-2-(2-carboxybenzylidene)hydrazino]thiazole] | 68.6 | 350 | 1000 | 15 | 8 | 8 | 4.3 | 16000 | 24000 | 29000 | 24000 | 1500 | 3690 | 5730 | 230 | 7690 | 45.7 | 350 | 53 | 450 | CC50 (in vitro [14]): 23000 nM; SI (TC50/IC50) [12]: 4
